# Tests used:
# [1] = Foaming test with the shaking method; type: physicochemical
# Protocol: (§1) 0.5 wt % of each sample in Table 1 was dissolved in ion exchanged water with 70 ppm calcium chloride already dissolved in it. […] This solution was kept at 30° C. put into a Nessler's tube with an inner diameter of 3 cm and a height of 20 cm equipped with a sliding plug, and then tilted 90 degrees every second using a pendulum type shaker. After one minute, the sample was taken out of the shaker and the foam height, the foam film thickness and the foam density were measured. The time required for the foam height to be reduced to a half of the original height was also measured. The foam film thickness was measured by taking a photograph of the foam using a microscope at 100 times magnification and calculating the average value on the photograph. The foam density was obtained by sampling 10 ml of the foam and measuring its weight.
# as §1, with “Table 6” for “Table 1”, “30° C.,” for “30° C.”
# as §1, with “Table 11” for “Table 1”, “30° C.,” for “30° C.”
# as §1, with “sample” for “sample in Table 1”, “C.,” for “C.”, “weight. […]” for “weight.”
# [2] = Lathering/foaming test: foam volume in a mixer with artificial dirt; type: physicochemical; conditions: mixtures of N-methyl taurate laurate and sodium laurate, total 100 mmol/L; 400 ml with 2g artificial dirt, stirred 60 seconds
Compound,Foaming (in words) ([1]; pH 4),Foaming (in words) ([1]; pH 7),also measured
Sodium hydroxylauryl ether carboxylate [Control sample 1],harder to foam,–,–
Sodium hydroxylaurate [Control sample 1],–,harder to foam,–
Magnesium laurate [Control sample 3],–,harder to foam,–
Potassium hydroxylauryl ether carboxylate [Control sample 2],harder to foam,–,–
Potassium hydroxylaurate [Control sample 2],–,harder to foam,–
CNCCS(=O)(=O)O [N-methyl taurine],–,–,"Lathering/foaming ability (foam volume, FIG. 6) [2]: good lathering/foaming ability"
